Like-named read-outs stand apart in the source and are kept apart here.
How the values were obtained:
[1] = test system: Venular Endothelial cells (HUVEC) (4H system); test: BioMAP 4H system (IL-4 and histamine); assay type: cell-based, human; conditions: procedure of Example 826; for inhibition at 10 µM / inhibition at 1 µM: Homo sapiens, HUVEC, 24 h; for % decrease in Eotaxin-3 / % decrease in MCP-1 / inhibition at 1 µM: 1 uM
[2] = test system: Subnormal activation of pyruvate dehydrogenase complex (PDH) primary fibroblasts GM01503; test: NADP+/NADPH (NADP/NADPH-Glo), PDH fibroblasts GM01503; assay type: cell-based; conditions: Homo sapiens, Fibroblast, PDH GM01503 P10, assay condition A (10 mM glucose, 2 mM L-glutamine, 1 mM pyruvate, 10% FBS), 24h, read-out: Increase in Total NADP+ + NADPH
Method: Primary adherent fibroblasts were cultured in minimum essential medium (MEM) (Gibco, 25030081) supplemented with 2 mM L-Glutamine (Gibco, 25030081), 15% fetal bovine serum (FBS) (Gibco, 26400044) and 1% penicillin/streptomycin (Gibco, 5140122) at 37° C. and 5% CO2. Cells were collected for either passaging or experiment at ˜70-80% confluence. Cells were obtained by trypsinization and seeded in cell culture microplates either white plate (Thermo Fisher Scientific, 152028) for luminescent measurement or black plate (Thermo Fisher Scientific, 165305) for fluorescent based read out for different assays listed below. Cells were obtained by trypsinization and […] were seeded and allowed to adhere for 16-18 hours to have confluency around 70-80% in the cell well with culture media. After 24 hours prior to measurements (37° C., 5% CO2) media was changed to Dulbecco's Modified Eagle Medium (DMEM, Agilent Seahorse cat #103575-100) with the appropriate supplements as stated below.
Primary fibroblasts assayed were Propionic Acidemia (PA) (GM03590 Coriell Institute for Medical Research, Tsi 6337 Trans-Hit Bio), Methylmalonic Acidemia (MMA) (Tsi 5224 Trans-Hit Bio), Subnormal activation of pyruvate dehydrogenase complex (PDH) (GM01503 Coriell Institute for Medical Research), Very long-chain acyl-CoA dehydrogenase (VLCAD) (GM17475), Leigh Syndrome (LS) (GM03672, GM13411 Coriell Institute for Medical Research), Pyruvate Carboxylase Deficiency (PC) (GM00444 Coriell Institute for Medical Research). 10 μM of Compounds were added for 2 hours in PA, MMA lines and for 24h for the other fibroblast lines.
Assay was performed according to manufacturer instructions (NADP+/NADPH-Glo Assay Promega, G9082). Assay required a plate for total measurement of NADP+/NADPH and a plate for individual measurement of NADP+ or NADPH. For every assay a 12-point standard curve is prepared ranging from 400 nM to 0.625 nM. Media is removed and replaced with 50 μl of PBS for both assays.
For individual NADP+/NADPH measurements, 50 μl of 1% DTAB (Sigma, D5047) (cell lysis reagent) in 0.2N NaOH was added to the plates and 100 μl of lysate was split into two plates with 50 μl each from which ratio of NADP/NADPH can be calculated. 25 μl of 0.4N HCl were added to the NADP+ plates and both NADP+ and NADPH plates were heated at 60° C. for 15 minutes. The acid and heat treatment destroyed NADPH allowing individual NADP+ measurements while heating in basic conditions destroys NADP+ allowing individual NADPH measurement. After 15 minutes plates were allowed to come to room temperature and Trizma base (Sigma, T1699) was added to the NADP+ plates to neutralize the acid and HCl Trizma hydrochloride (Sigma, T2694) was added to the NADPH plates. The NADNADPH glo reagent was prepared by adding 125 μl of NAD cycling substrate, 125 μl of reductase, 125 μl of reductase substrate, 125 μl NAD cycling enzyme to a total of the 25 ml of NAD GLO reagent. 1:1 ratio of total volume of reagent was added to the individual NADP+, NADPH measurements (total 100 μl) and 50 μl were added for the total NAD/NADPH measurements. Luminescence was measured for 30-60 minutes within the linear range.
A total dead cell count was performed as described in Example 817 and only alive cells were used for analysis.

[3] = test system: Venular Endothelial cells (HUVEC) (3C system); test: BioMAP 3C system (IL-1β, TNFα, IFNγ); assay type: cell-based, human; conditions: 10 uM; procedure of Example 825
Method: (§1) The BioMAP platform (BioMAP® Diversity PLUS® Panel from Eurofins) is an in vitro phenotypic profiling technology that screened the compounds of the present disclosure (hereafter indicated as test agents) in human primary cell-based systems modelling complex tissue and disease states. The BioMAP assays were performed using the Eurofin's BioMAP Technology Platform as (see references 1 to 13 in the example 824 section) to model different diseases on primary cell-based model systems. These systems consisted of either single primary cell types or co-culture cells. Adherent cell types were cultured or co-cultured in 96 or 384-well plates until confluence followed by the addition of compounds prepared in DMSO at a final concentration of ≤0.1%. In each cell-based system, primary cells from heathy donors (2-6 donors) were pooled and treated with compounds at 1 and 10 μM dose 1h prior to stimulation and remain in culture as indicated in Example 825, Example 826, Example 827, Example 828, Example 829, Example 830, Example 831, Example 832, Example 833, Example 834, Example 835, Example 836 and Example 837. For on the BioMAP® Diversity PLUS® Panel, please see the following references, which are incorporate herein.
Following the general procedure as described in Example 824, Venular Endothelial cells (HUVEC) (3C system) were treated with IL-1β, TNFα, IFNγ for 24h to model Th1 driven cardiovascular and chronic inflammation diseases in the presence or absence of the compounds. Biomarker read out were; Tissue Factor, ICAM-1, E-selectin, uPAR (CD87), IL-8, MIG, HLA-DR, proliferation and SRB (Sulfo-rhodamine i.e. staining for protein content).

[4] = test system: Peripheral blood mononuclear cells co-cultured with venular endothelial cells (Sag system); test: BioMAP Sag system (T-cell ligands); assay type: cell-based, human; conditions: 10 uM; procedure of Example 828
Method: as §1
Following the general procedure as described in Example 824, Peripheral blood mononuclear cells were co-cultured with venular endothelial cells and treated with soluble antigen (T-cell ligands) (Sag system) in the presence or absence of compounds to model autoimmune and chronic inflammation. Biomarkers read out were; MCP-1, CD38, CD40, E-selectin, CD69, IL-8, MIG, PBMC cytotoxicity, Proliferation and SRB.

[5] = 10 uM, read-out: % decrease in E-Selectin
[6] = read-out: % decrease in VEGFRII
[7] = 10 uM, read-out: % decrease in VEGFRII
[8] = read-out: % decrease in E-Selectin

With COC(=O)CC(SCCNC(=O)CCNC(=O)[C@H](O)C(C)(C)COC(C)=O)C(=O)OC (stereo partly drawn) [Compound 149, 1,4-dimethyl 2-[(2-[3-[(2R)-4-(acetyloxy)-2-hydroxy-3,3-dimethylbutanamido]propanamido]ethyl)sulfanyl]butanedioate] the “% increase in VEGRII” value ([1]; 10 uM) was at least 10% and the inhibition at 10 µM [1, 5] was at least 10%.

C[C@@H](O)CC(=O)SCCNC(=O)CCNC(=O)[C@H](O)C(C)(C)CO [Compound 38, S-2-{3-[(R)-2,4-dihydroxy-3,3-dimethylbutyrylamino]propionylamino} ethyl (R)-3-hydroxybutanethioate] gave an activation at 10 µM [2] of at least 10%.

C[C@H](O)CC(=O)CC(=O)SCCNC(=O)CCNC(=O)[C@H](O)C(C)(C)CO [Compound 1306, (2R)-2,4-dihydroxy-N-[2-[(2-[[(5S)-5-hydroxy-3-oxohexanoyl]sulfanyl]ethyl)carbamoyl]ethyl]-3,3-dimethylbutanamide] showed an activation at 10 µM [2] of at least 10%.

Work on CC(O)C(C(=O)SCCNC(=O)CCNC(=O)[C@H](O)C(C)(C)CO)C(C)O (stereo partly drawn) [Compound 1285, (2R)-2,4-dihydroxy-N-[2-[(2-[[3-hydroxy-2-(1-hydroxyethyl)butanoyl]sulfanyl]ethyl)carbamoyl]ethyl]-3,3-dimethylbutanamide] yielded an activation at 10 µM [2] of at least 10%.

In the case of COC(=O)CCC(=O)SCCNC(=O)CCNC(=O)[C@H](OC(=O)CNC(C)=O)C(C)(C)CO [Compound 1298, methyl 4-[(2-[3-[(2R)-2-[(2-acetamidoacetyl)oxy]-4-hydroxy-3,3-dimethylbutanamido]propanamido]ethyl)sulfanyl]-4-oxobutanoate], the “% decrease in Eotaxin-3” value [1] is reported as at least 10%, the “% decrease in MCP-1” value [1] is reported as at least 10% and the inhibition at 1 µM [1, 6] is reported as at least 10%. The “% decrease in IL-8” value [3] was at least 10%.

With CC(=O)SCCNC(=O)CCNC(=O)[C@H](O)C(C)(C)COC(=O)[C@H](C)N [Compound 502, (3R)-3-[(2-[[2-(acetylsulfanyl)ethyl]carbamoyl]ethyl)carbamoyl]-3-hydroxy-2,2-dimethylpropyl (2S)-2-aminopropanoate] the activation at 10 µM [2] was at least 10% and the inhibition at 10 µM [1, 7] was at least 10%.

In the case of CC(C)(CO)[C@@H](O)C(=O)NCCC(=O)NCCSC(=O)[C@@H](N)Cc1ccc(O)c(O)c1 [Compound 371, (2R)—N-[2-[(2-[[(2S)-2-amino-3-(3,4-dihydroxyphenyl)propanoyl]sulfanyl]ethyl)carbamoyl]ethyl]-2,4-dihydroxy-3,3-dimethylbutanamide], the “% decrease in Proliferation” value [4] is reported as at least 10%, the “% increase in PBMC cytotoxicity” value [4] is reported as at least 10% and the inhibition at 10 µM [1, 7] is reported as at least 10%. The “% increase in Proliferation (HUVEC)” value [3] was at least 10%.

Compound CC(C)(CO)[C@@H](O)C(=O)NCCC(=O)NCCSC(=O)CCCO [Compound 1304, (2R)-2,4-dihydroxy-N-[2-([2-[(4-hydroxybutanoyl)sulfanyl]ethyl]carbamoyl)ethyl]-3,3-dimethylbutanamide] has an activation at 10 µM [2] of at least 10%.

In the case of COC(=O)CCC(=O)SCCNC(=O)CCNC(=O)[C@H](OC(=O)CN)C(C)(C)CO [Compound 1294, methyl 4-[(2-[3-[(2R)-2-[(2-aminoacetyl)oxy]-4-hydroxy-3,3-dimethylbutanamido]propanamido]ethyl)sulfanyl]-4-oxobutanoate], the “% decrease in MCP-1” value [1] is reported as at least 10%, the “% decrease in IL-8” value [3] is reported as at least 10% and the “% increase in Proliferation (HUVEC)” value [3] is reported as at least 20%.

COC(=O)CCC(=O)SCCNC(=O)CCNC(=O)[C@H](O)C(C)(C)COC(C)=O [Compound 138] showed an inhibition at 1 µM [1, 6] of at least 20%.

For C[C@@H](O)CC(=O)CC(=O)SCCNC(=O)CCNC(=O)[C@H](O)C(C)(C)CO [Compound 42, (2R)-2,4-dihydroxy-N-[2-[(2-[[(5R)-5-hydroxy-3-oxohexanoyl]sulfanyl]ethyl)carbamoyl]ethyl]-3,3-dimethylbutanamide], the “% increase in Proliferation” value [4] was at least 10%, the activation at 10 µM [2] was at least 10% and the “% decrease in Eotaxin-3” value [1] was at least 10%. For the same compound, the “% increase in MCP-1” value ([1]; 10 uM) was at least 10%, the “% increase in VEGRII” value ([1]; 10 uM) was at least 10% and the inhibition at 10 µM [1, 5] was at least 10%.

COC(=O)CC(C(C)=O)C(=O)SCCNC(=O)CCNC(=O)[C@H](O)C(C)(C)CO (some centres unmarked) [Compound 410] was tested, and the activation at 10 µM [2] was at least 10%.

For CC(=O)SCCNC(=O)CCNC(=O)[C@H](O)C(C)(C)COC(=O)[C@@H](N)Cc1ccc(O)c(O)c1 [Compound 498, (3R)-3-[(2-[[2-(acetylsulfanyl)ethyl]carbamoyl]ethyl)carbamoyl]-3-hydroxy-2,2-dimethylpropyl (2S)-2-amino-3-(3,4-dihydroxyphenyl)propanoate], the “% decrease in Proliferation” value [4] was at least 10%, the inhibition at 1 µM [1, 8] was at least 10% and the inhibition at 10 µM [1, 7] was at least 10%.

In the case of CC(=O)OCC(C)(C)[C@@H](O)C(=O)NCCC(=O)NCCSC(=O)CC(=O)CCC(=O)O [Compound 140, 6-[(2-[3-[(2R)-4-(acetyloxy)-2-hydroxy-3,3-dimethylbutanamido]propanamido]ethyl)sulfanyl]-4,6-dioxohexanoic acid], the activation at 10 µM [2] is reported as at least 10%.

In the case of CCCCCCC(=O)SCCNC(=O)CCNC(=O)[C@H](O)C(C)(C)CO [Compound 372, (2R)—N-(2-[[2-(heptanoylsulfanyl)ethyl]carbamoyl]ethyl)-2,4-dihydroxy-3,3-dimethylbutanamide], the “% increase in Proliferation” value [4] is reported as at least 10%, the inhibition at 1 µM [1, 8] is reported as at least 10% and the “% increase in Proliferation (HUVEC)” value [3] is reported as at least 20%.

For CC(=O)OCC(C)(C)[C@@H](OC(C)=O)C(=O)NCCC(=O)NCCSC(C)=O [Compound 1264, (1R)-3-(acetyloxy)-1-[(2-[[2-(acetylsulfanyl)ethyl]carbamoyl]ethyl)carbamoyl]-2,2-dimethylpropyl acetate], the activation at 10 µM [2] was at least 10%, the inhibition at 10 µM [1, 7] was at least 10% and the “% increase in Proliferation (HUVEC)” value [3] was at least 10%.

For CCC(=O)CC(=O)SCCNC(=O)CCNC(=O)[C@H](O)C(C)(C)CO [Compound 382, (2R)-2,4-dihydroxy-3,3-dimethyl-N-[2-([2-[(3-oxopentanoyl)sulfanyl]ethyl]carbamoyl)ethyl]butanamide], the activation at 10 µM [2] was at least 10%.
